Two molecules from patent US11274332B2, “Methods of administering 3,4-diaminopyridine” (SERB SA, priority 2011, dated 2022) can be followed below.

A value given as a limit tells only on which side of the number the result lay.

A short description of data set [1]: Rat PK study, IV and oral TID amifampridine phosphate (Example 4). As to conditions: rat, after amifampridine phosphate. It counts as in vivo. The procedure:
The objective of this study was to determine the absolute bioavailability of amifampridine phosphate and the pharmacokinetics of amifampridine and its 3-N-acetyl metabolite upon single-dose IV and single-day oral dose (TID) administration.
Amifampridine phosphate was administered by IV bolus at 0.8 mg/kg (in saline) to 6 rats/sex and by oral gavage (in water) TID (approximately 6 hours apart) at dose levels of 2, 8, and 25 mg/kg/dose (equivalent to 6, 24, and 75 mg/kg/day) to 12 rats/sex/group, with oral Dose 1 given to fasted rats and Dose 2 and 3 with food ad libitum. For IV bolus dose and oral Dose 1 (dose administration No. 1), blood samples were collected from three animals/sex/timepoint at predose and 0.083 (IV only), 0.17, 0.25, 0.33, 0.5, 0.75, 1, 1.25 (IV only), 1.5, 2, 2.5, 3, and 6 hours post-dose; 0.17, 0.5, and 6 hours following the second oral dose (dose administration No. 2); and 0.17, 0.25, 0.33, 0.5, 0.75, 1, 1.5, 2, 3, 4, 6, 8, and 10 hours following the third oral dose (dose administration No. 3). The second and third oral doses were given at 6 and 12 hours, respectively, after the first dose. LC-MS/MS was used to quantify amifampridine, 3-N-acetyl and 4-N-acetyl amifampridine metabolites in rat plasma samples. […] Noncompartmental analysis was applied to the mean plasma amifampridine and 3-N-acetyl metabolite concentration data for male and female rats. […]

Another data set concerns the target T1, hKv1.7 (Homo sapiens, UniProt Q96RP8).
T1 construct: expressed in transfected cells; host or cells: CHO cells (transient transfection)
The data set can be described thus: Whole cell patch clamp inhibition of hKv1.7 current in transiently transfected CHO cells (Example 5). As to conditions: 10,000 μM in HB-PS. It counts as cell-based. The procedure:
Chemicals used in solution preparation were purchased from Sigma-Aldrich (St. Louis, Mo.), unless otherwise noted, and were of ACS reagent grade purity or higher. Stock solutions of each test article (100.104 mM and 1.00 mM 3,4-DAP phosphate and 100.023 mM and 336.335 mM N-(4-aminopyridin-3-yl) acetamide HCl) were prepared in sterile water, stored refrigerated and used within one day. […] All test article solutions contained 3% sterile water. The test articles were prepared in sufficient volume to run the assay (typically 50 mL).
CHO cells, transiently transfected with hKv1.7, were cryopreserved in 90% FBS and 10% DMSO. Frozen vials of cells were thawed rapidly in a 37° C. water bath. Cells were transferred to a 15 mL conical tube, 10 mL of growth media (Ham's/F12-PS/10% FBS) was added, the suspension was gently mixed and the tube was centrifuged at approximately 250×g for 5 min. The medium was removed, the cell pellet was resuspended in 20 mL of medium, and cells were triturated to disperse cell clumps. For electrophysiology use, 2 mL of the cell suspension was plated in each 35 mm cell culture dish. Recording began 2-3 hours after plating once the cells settled out of the media and adhered to the bottom of the culture dish. […]
Cells were transferred to the recording chamber and superfused with vehicle control solution. […] Onset and steady state inhibition of hKv1.7 current due to the test article was measured using a pulse pattern with fixed amplitudes (depolarization: +10 mV amplitude, 300 ms duration) repeated at 10-second intervals from a holding potential of −80 mV. Current amplitude was measured at the end of the step to +10 mV. Current was monitored until a new steady state was achieved. […] The IC50 for sustained current was calculated for 3,4-DAP phosphate salt.
For 3,4-DAP phosphate salt, the concentration-response relationship was evaluated at seven concentrations (1, 10, 30, 100, 300, 1000 and 3000 μM) and for N-(4-aminopyridin-3-yl) acetamide HCl salt, the concentration-response relationship was evaluated at three concentrations (100, 1000 and 3000 μM).

T1 sequence (Q96RP8 whole entry): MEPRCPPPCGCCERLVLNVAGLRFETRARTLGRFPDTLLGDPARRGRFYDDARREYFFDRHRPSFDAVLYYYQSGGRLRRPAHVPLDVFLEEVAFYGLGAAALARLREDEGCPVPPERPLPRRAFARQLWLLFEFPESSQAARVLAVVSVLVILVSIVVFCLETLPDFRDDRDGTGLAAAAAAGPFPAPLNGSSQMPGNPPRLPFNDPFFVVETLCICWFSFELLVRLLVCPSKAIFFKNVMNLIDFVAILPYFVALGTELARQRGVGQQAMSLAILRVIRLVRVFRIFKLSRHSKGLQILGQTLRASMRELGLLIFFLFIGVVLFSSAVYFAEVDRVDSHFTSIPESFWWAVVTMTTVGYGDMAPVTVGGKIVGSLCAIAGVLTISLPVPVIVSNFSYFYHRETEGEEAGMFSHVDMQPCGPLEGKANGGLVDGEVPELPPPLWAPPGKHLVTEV

With `CC(=O)Nc1ccncc1N` [4-N-acetyl metabolite], the Cmax in plasma in data set [1] is on record as < 25 ng/mL. `CC(=O)Nc1cnccc1N.Cl` [N-(4-aminopyridin-3-yl) acetamide HCl]: the “solubility in test formulation” value on hKv1.7 is listed as “visible precipitate was observed”.
